What was measured:
[1] = system: KK-Ay mice; settings: mouse, in vivo, 1 mg/kg
Method: (§1) Animals were divided into the following four groups (six animals per group): a first group (control), a second group (administration of compound A (1 mg/kg)), a third group (administration of compound B (3 mg/kg)), and a fourth group (administration of fenofibrate (300 mg/kg)).
(§2) Each drug was orally administered once a day (in the morning) for 35 days. A 0.5 mass % aqueous methylcellulose solution was orally administered (5 mL/kg) to the animals of the first group (control).

[2] = system: Zucker fatty rats; test: Adverse events and feed intake during administration to Zucker fatty rats; format: in vivo, rat
Method: Rats were divided into the following four groups (six rats per group) so that body weights, plasma total cholesterol levels, and plasma triglyceride levels were averaged in the groups: a first group (control), a second group (administration of compound A (1 mg/kg)), a third group (administration of compound A (3 mg/kg)), and a fourth group (administration of fenofibrate (300 mg/kg)). A group of five Zucker lean rats was employed as a negative control group.
Each drug was orally administered once a day (in the morning) for continuous 14 days. A 0.5 mass % aqueous methylcellulose solution (2 mL/kg) was orally administered to the rats of the first group (control).
However, from 11 days to 14 days after administration, feed intake was reduced by 14% in the rats of the group of fenofibrate administration, which raised a concern about the toxicity of fenofibrate. Even under such a situation, fat weight tended to decrease only slightly.

[3] = system: KK-Ay mice; test: Fat weight reducing effect on obesity model mice (KK-Ay mice); format: in vivo, mouse; settings: oral once a day for 35 days
Method: This test employed compound A, as well as (R)2-[3-[ [N-(5-fluorobenzoxazol2-yl)-N2-phenoxyethyl]aminomethyl]phenoxy]butyric acid (hereinafter will be referred to as “compound B”), which is an optically active substance of the compound disclosed in Example 229 in Patent Document 2. Compound A, compound B, or fenofibrate was administered to KK-Ay mice, and the effects of the compound on epididymal fat weight and mesenteric fat weight were determined through the below-described methods.
Method: Male KK-Ay mice (KK-Ay/TaJcl) were purchased from Clea Japan, Inc. (10 weeks old upon test). Each compound was orally administered to mice once a day for […]. Throughout the test period, the mice were reared in a rearing cage (light-dark cycle (light period by interior lighting: 7:00 a.m. to 7:00 p.m.), temperature: 23±3° C., humidity: 55+15%) under conditions where solid feed (CE-2, product of Oriental Yeast Co., Ltd.) and tap water were fed ad libitum.
Each of compound A, compound B, and fenofibrate was suspended in a 0.5 mass % aqueous solution of methylcellulose (Metolose (registered trademark), SM-400, product of Shin-Etsu Chemical Co., Ltd.) so that the dose of the aqueous solution was adjusted to 5 mL/kg. The resultant suspension was refrigerated in a light-shielding bottle at 4° C., and drug preparation was carried out every seven days.
as §1, §2
After completion of administration, epididymal fat and mesenteric fat were removed and weighed.
The results were represented as percent reduction (mean value) in fat weight in each compound administration group with respect to the control group.

[4] = system: FGF21; test: Plasma FGF21 level in Zucker fatty rats, ELISA; format: in vivo, rat; settings: compound A 3 mg/kg, oral once a day for 14 days, day 14
Method: (§3) This test employed (R)-2-[3-[[N-(benzoxazol2-yl) -N-3-(4-methoxyphenoxy)propyl]aminomethyl]phenoxy]butyric acid (hereinafter will be referred to as “compound A”), which is an optically active substance of the compound disclosed in Example 14 in Patent Document 2. Compound A or fenofibrate was administered to Zucker fatty rats, and the effects of the compound on plasma triglyceride (TG) level, plasma FGF21 level, and epididymal fat weight were determined through the below-described methods.
(§4) Hyperlipidemic Zucker fatty rats with obesity due to overeating (Crlj: ZUC-Lepr Genotype: fa/fa) and Zucker lean rats without obesity (Crlj: ZUC-Lepr Genotype: fa/+ or +/+) were purchased from Charles River Laboratories Japan Inc. (eight weeks old upon test).
(§5) Throughout the test period, the rats were reared in a rearing cage (light-dark cycle (light period by interior lighting: 7:00 a.m. to 7:00 p.m.), temperature: 23+3° C., humidity: 55±15%) under conditions where solid feed (CE-2, product of Oriental Yeast Co., Ltd.) and tap water were fed ad libitum. […]
(§6) On day 14 after initiation of administration, blood was collected after four-hour fasting following administration, and plasma triglyceride level and plasma FGF21 level were measured through an enzymatic method and ELISA (Human FGF-21 ELISA Kit, product of Biovender), respectively. […]

[5] = system: Zucker fatty rats; test: Plasma triglyceride (TG) level in Zucker fatty rats, enzymatic method; format: in vivo, rat; settings: compound A 3 mg/kg, oral once a day for 14 days, blood on day 14 after four-hour fasting
Method: as §3, §4, §5, §6

[6] = system: Zucker fatty rats; test: Epididymal fat weight (indicator of visceral fat weight) in Zucker fatty rats; format: in vivo, rat; settings: compound A 3 mg/kg, oral once a day for 14 days
Method: as §3, §4, §5, §6

[7] = system: rat model; settings: cited from earlier work

With `CC[C@@H](Oc1cccc(CN(CCCOc2ccc(OC)cc2)c2nc3ccccc3o2)c1)C(=O)O` [Compound A, (R)-2-[3-[[N-(benzoxazol2-yl) -N-3-(4-methoxyphenoxy)propyl]aminomethyl]phenoxy]butyric acid] the “adverse events during the period of administration” value [1] was “adverse events were not particularly observed”, the “adverse events during the period of administration” value ([2]; rat, in vivo, po) was “adverse events were not particularly observed” and the “Epididymal fat weight, percent reduction (mean value) with respect to the control group” value ([3]; 1 mg/kg) was 27%. The “Mesenteric fat weight, percent reduction (mean value) with respect to the control group” value (from here on “Mesenteric fat weight, percent reduction”) ([3]; 1 mg/kg) was 20%, the “plasma FGF21 level versus control group” value [4] was “significantly (p<0.001) higher than that in the control group” and the “plasma triglyceride level versus control group” value [5] was “significantly (p<0.05) lower than that in the control group”. The “epididymal fat weight versus control group” value [6] was “considerably and statistically significantly lower than that in the control group”.
In the case of `CC[C@@H](Oc1cccc(CN(CCOc2ccccc2)c2nc3cc(F)ccc3o2)c1)C(=O)O` [Compound B, (R)2-[3-[ [N-(5-fluorobenzoxazol2-yl)-N2-phenoxyethyl]aminomethyl]phenoxy]butyric acid], the “Mesenteric fat weight, percent reduction” value ([3]; 3 mg/kg) is reported as 17%.
In the case of `CC(C)OC(=O)C(C)(C)Oc1ccc(C(=O)c2ccc(Cl)cc2)cc1` [Fenofibrate, fenofibrate], the “feed intake compared with control group” value ([2]; fenofibrate 300 mg/kg, Zucker fatty rats, for 10 days after administration) is given as “maintained equal to that in the rats of the control group”, the “reduction of feed intake” value ([2]; fenofibrate 300 mg/kg, Zucker fatty rats, from 11 days to 14 days after administration) is given as 14% and the “adverse events at high dose” value ([7]; high dose of fenofibrate, rat model) is given as “adverse events (e.g., decrease in hemoglobin, or necrosis of liver cells) occur in the model”. The adverse events ([7]; rats, dose of 30 mg/kg or more) was “various adverse events occur in the rats”, the “Epididymal fat weight, percent reduction (mean value) with respect to the control group” value ([3]; 300 mg/kg) was 15% and the “Mesenteric fat weight, percent reduction” value ([3]; 300 mg/kg) was 13%.
